The source of these data is PMC8177795 (Cancer Science, 2021).

Several values for one entry are separate records, joined by “and”; a condition that tells them apart may be missing. Equal values may be shown once.

Data set [1] in a line: Plasma pharmacokinetics of acalabrutinib and ACP‐5862. Type of data set: in vivo, Japanese patients. The conditions noted are these: for M/P ratio (metabolite to parent), AUC / M/P ratio (metabolite to parent), AUC0–12 / M/P ratio (metabolite to parent), AUC0–t / M/P ratio (metabolite to parent), Cmax: part 1.
The subject of data set [2] is BTK. The conditions noted are these: no reference given; cited from earlier work.
The mark [3] stands for this setting: multiple dose 100 mg BID, day 8, part 1.
[4] abbreviates: multiple dose 100 mg BID, day 8, part 1, fasting.
Where [5] appears, read: single dose 100 mg acalabrutinib, part 1, fasting.

Consider `CC#CC(=O)NCCCC(=O)c1nc(-c2ccc(C(=O)Nc3ccccn3)cc2)c2c(N)nccn12` [ACP‐5862], for which, in data set [1] (setting [3]), the “RAC (extent of accumulation on multiple dosing), Amean ± SD” value is 2.72 and 2.722 ± 2.826; the “TC (time dependency of pharmacokinetics), Amean ± SD” value was determined as 1.444 ± 0.8136. In data set [1] (setting [4]), the “AUC0–12, Gmean (CV)” value is on record as 1987 (8%) ng∙h/mL; the “AUC0–t, Gmean (CV)” value is 1985 (8%) ng∙h/mL; the “AUC (zero to infinity), Gmean (CV)” value is listed as 2099 (7%) ng∙h/mL; the “Cmax, Gmean (CV)” value is given as 629.7 (27%) ng/mL. Moreover, in data set [1] (setting [4]), the “t1/2, Amean ± SD” value is 3.216 ± 0.3938 h and the “tmax, median (min, max)” value is recorded as 0.940 (0.750, 1.080) h. Besides, in data set [1] (multiple dose), the “M/P ratio (metabolite to parent), AUC” value is reported as 1.73; the “M/P ratio (metabolite to parent), AUC0–12” value is reported as 1.64; the “M/P ratio (metabolite to parent), AUC0–t” value is on record as 1.65; the “M/P ratio (metabolite to parent), Cmax” value amounted to 0.56. In data set [1] (setting [5]), the “AUC0–12, Gmean (CV)” value is recorded as 1092 (124%) ng∙h/mL; the “AUC0–t, Gmean (CV)” value is listed as 1306 (94%) ng∙h/mL; the “AUC (zero to infinity), Gmean (CV)” value is recorded as 1557 (60%) ng∙h/mL; the “Cmax, Gmean (CV)” value was 316.5 (260%) ng/mL. Besides, in data set [1] (setting [5]), the “t1/2, Amean ± SD” value was found to be 10.18 ± 7.986 h and the “tmax, median (min, max)” value is on record as 0.965 (0.900, 4.000) h. Besides, in data set [1] (single dose), the “M/P ratio (metabolite to parent), AUC” value is reported as 1.40; the “M/P ratio (metabolite to parent), AUC0–12” value is 1.23; the “M/P ratio (metabolite to parent), AUC0–t” value was found to be 1.36; the “M/P ratio (metabolite to parent), Cmax” value is 0.53. In data set [2], the “Potency for BTK inactivation relative to the parent agent acalabrutinib” value was “approximately 50%”.
